Laboratory results: ChEMBL document CHEMBL4393699, “Ligand retargeting by binding site analogy” (Eur J Med Chem, 2019)
Activity calls are given as the source filed them. The calls are words filed in the database; no cut-off is given here.

Legend:
[1] = species: Homo sapiens; experiment: Selectivity ratio of IC50 for BACE1 (unknown origin) to IC50 for recombinant His-tagged […] (unknown origin) expressed in Escherichia coli BL21 (DE3) cells
[2] = target: T1, Beta-secretase 1 (Homo sapiens, UniProt P56817); experiment: Inhibition of BACE1 (unknown origin) using HiLyte Fluo488/QXL-520 as substrate by FRET assay
[3] = target: T1, Beta-secretase 1; experiment: Inhibition of BACE1 (unknown origin) at 200 uM using HiLyte Fluo488/QXL-520 as substrate by FRET assay
[4] = system: HeLa; experiment: Antiproliferative activity against human HeLa cells assessed as reduction in cell growth incubated for 72 hrs by resazurin dye based fluorescent assay
[5] = target: Voltage-gated inwardly rectifying potassium channel KCNH2 (Homo sapiens, UniProt Q12809); experiment: Inhibition of fluorescently labeled tracer binding to human ERG at 200 uM by competitive binding assay
Sequence of Voltage-gated inwardly rectifying potassium channel KCNH2 (Q12809 whole entry): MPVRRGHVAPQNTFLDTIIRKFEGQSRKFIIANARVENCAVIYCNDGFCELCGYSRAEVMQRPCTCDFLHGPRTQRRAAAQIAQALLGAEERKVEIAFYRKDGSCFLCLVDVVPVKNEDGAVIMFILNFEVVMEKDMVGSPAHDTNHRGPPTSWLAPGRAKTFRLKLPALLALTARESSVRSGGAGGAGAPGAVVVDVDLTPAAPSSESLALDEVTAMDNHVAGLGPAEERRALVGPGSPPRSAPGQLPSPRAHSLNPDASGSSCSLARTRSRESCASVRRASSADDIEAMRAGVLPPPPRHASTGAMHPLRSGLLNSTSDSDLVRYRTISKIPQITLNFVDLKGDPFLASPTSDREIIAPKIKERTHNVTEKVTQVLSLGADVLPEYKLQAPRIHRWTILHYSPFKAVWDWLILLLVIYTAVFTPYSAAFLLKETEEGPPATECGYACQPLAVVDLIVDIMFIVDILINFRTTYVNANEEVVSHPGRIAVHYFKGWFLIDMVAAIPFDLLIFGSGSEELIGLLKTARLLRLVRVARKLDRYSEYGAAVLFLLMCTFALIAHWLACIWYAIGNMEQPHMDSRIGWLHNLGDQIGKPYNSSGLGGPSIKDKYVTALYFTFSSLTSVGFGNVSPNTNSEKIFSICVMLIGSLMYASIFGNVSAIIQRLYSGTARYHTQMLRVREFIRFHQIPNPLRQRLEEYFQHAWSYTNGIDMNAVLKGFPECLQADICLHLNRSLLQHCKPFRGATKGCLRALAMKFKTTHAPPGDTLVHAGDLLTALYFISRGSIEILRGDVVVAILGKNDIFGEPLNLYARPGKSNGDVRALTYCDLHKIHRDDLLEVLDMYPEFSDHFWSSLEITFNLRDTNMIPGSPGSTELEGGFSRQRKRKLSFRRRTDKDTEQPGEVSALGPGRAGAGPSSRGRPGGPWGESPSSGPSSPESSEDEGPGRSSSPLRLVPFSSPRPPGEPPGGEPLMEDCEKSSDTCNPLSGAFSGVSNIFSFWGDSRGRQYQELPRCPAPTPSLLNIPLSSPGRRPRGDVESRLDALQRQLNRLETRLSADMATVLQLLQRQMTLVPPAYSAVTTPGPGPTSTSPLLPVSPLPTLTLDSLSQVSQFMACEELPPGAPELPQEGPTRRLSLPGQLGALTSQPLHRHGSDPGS

T1 sequence (P56817 whole entry): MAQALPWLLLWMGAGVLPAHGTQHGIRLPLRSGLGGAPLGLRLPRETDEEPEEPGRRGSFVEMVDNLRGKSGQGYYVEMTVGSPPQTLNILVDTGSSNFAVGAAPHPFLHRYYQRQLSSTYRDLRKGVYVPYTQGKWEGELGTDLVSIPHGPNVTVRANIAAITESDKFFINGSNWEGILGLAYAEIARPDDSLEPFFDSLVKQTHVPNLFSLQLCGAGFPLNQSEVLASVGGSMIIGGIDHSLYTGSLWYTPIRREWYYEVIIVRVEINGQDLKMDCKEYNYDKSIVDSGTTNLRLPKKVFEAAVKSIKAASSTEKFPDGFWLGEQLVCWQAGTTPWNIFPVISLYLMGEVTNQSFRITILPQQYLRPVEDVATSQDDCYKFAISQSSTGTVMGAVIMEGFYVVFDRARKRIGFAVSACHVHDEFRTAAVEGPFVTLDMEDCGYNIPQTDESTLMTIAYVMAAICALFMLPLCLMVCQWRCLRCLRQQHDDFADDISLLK

Row | IC50 [2] | inhibition [3] | GI50 [4] | Compound | Ratio IC50 [1] | inhibition (INH) [5]
1 | – | – | – | NCCc1ccc(O)c(C2CCCCC2)c1 | 5 | –
2 | > 200 µM | inactive | – | Nc1nc2ncccc2[nH]1 | – | –
3 | – | – | 3.8 µM | Nc1nc(NC2CC2)cc(-c2cccc(Cl)c2Cl)n1 | – | –
4 | > 200 µM | inactive | 30 to 90 µM | Nc1nc2c(-c3ccncc3F)ccnc2[nH]1 | – | Not Active
